Assay results published in US11904051B2, “Shear stress sensitive liposomes” (Universität Basel, priority 2018, dated 2024).

Experiment: Dynamic light scattering of liposomes (Delsa Nano C)
Format: physicochemical
Settings: 25 ° C.
Description: The lipid concentration of the two formulations was determined using the phosphate test (Stalder and Zumbuehl. CHIMIA International Journal for Chemistry 2013, 67, 819-821). Size and size distribution of the liposomes were quantified by means of dynamic light scattering (DLS) using a Delsa Nano C (Beckman Coulter, USA). DLS measurements were performed at a temperature of 25° C., using two laser diodes working at a wavelength of 658 nm. The scattering angle was set to 165 degrees. Cryo-TEM images of Pad-PC-Pad liposomal suspension were taken by mounting the liposomal suspension on glow-discharged holey carbon grids, quickly frozen by a Cryoplunge CP3 system (Gatan, USA), and transferred to a JEM2200FS transmission electron microscope (JEOL, Japan) using a Gatan626 cryo-holder. Cryo-TEM micrographs were recorded at an acceleration voltage of 200 kV at a magnification of 20,000, 4-8 μm under-focus, and a dose of 10 electrons=Å^2, using a F416 CMOS detector (TVIPS, Germany).

mean diameter (DLS): 131.6+/−0.9 nm
polydispersity index (PDI): 0.103+/−0.009
SMILES: CCCCCCCCCCCCCCCC(=O)NCC(CNC(=O)CCCCCCCCCCCCCCC)OP(=O)([O-])OCC[N+](C)(C)C [Pad-PC-Pad, 1,3-palmitoylamido-1,3-deoxy-sn-glycero-2-phosphatidylcholine]
